13 molecules from ChEMBL document CHEMBL5226286, “The application of isatin-based multicomponent-reactions in the quest for new bioactive and druglike molecules” (Eur J Med Chem, 2021) can be followed below.

Structures are written as SMILES. Values after ≈ are worked out from the molar mass of the structure shown. Active and inactive are the calls of the source. The rule behind the calls is not given here.

Experiment [1] relates to A549. Description: Antiproliferative activity against human A549 cells by MTT reduction assay. It is filed as functional, cell-based.
Another experiment concerns SK-N-SH. Description: Antiproliferative activity against human SK-N-SH cells by MTT reduction assay. It is filed as functional, cell-based. A general note: Tetrazolium dyes change colour on reduction, which living cells bring about.
The test system of the next experiment is HeLa. The experiment is described as follows: Cytotoxicity against human HeLa cells incubated for 24 hrs by MTT reduction assay. It is filed as functional, cell-based.
For experiment [2], the system named is HepG2. Description: Antiproliferative activity against human HepG2 cells by MTT reduction assay. It is filed as functional, cell-based.
Experiment [3] concerns MCF7. The experiment is described as follows: Antiproliferative activity against human MCF7 cells by MTT reduction assay. It is filed as functional, cell-based.
The subject of a further experiment is CCRF-CEM. Description: Antiproliferative activity against human CCRF-CEM cells. The class given is functional, cell-based.
A further experiment relates to SK-OV-3. Description: Antiproliferative activity against human SK-OV-3 cells. It is filed as functional, cell-based.
Experiment [4] deals with K562. The experiment is described as follows: Antiproliferative activity against human K562 cells by MTT reduction assay. It is filed as functional, cell-based.
A further experiment is described as follows: cells. It is filed as functional, cell-based. Particulars: Homo sapiens, HCCC9810.
A further experiment deals with Huh-7. The experiment is described as follows: cells. It is filed as functional, cell-based. Particulars: Homo sapiens.
Experiment [5] has as its system HCT-116. The experiment is described as follows: Cytotoxicity against human HCT-116 cells. It is filed as functional, cell-based.
Experiment [6] relates to HepG2. The experiment is described as follows: cells. The class given is functional, cell-based. Particulars: Homo sapiens.
Experiment [7] relates to HCT-116. The experiment is described as follows: Antiproliferative activity against human HCT-116 cells. It is filed as functional, cell-based.
The test system of a further experiment is PC-3. The experiment is described as follows: Antiproliferative activity against human PC-3 cells. The class given is functional, cell-based.
Experiment [8] is described as follows: Antiproliferative activity against human U87 cells. It is filed as functional, cell-based, U-87MG ATCC. The conditions noted are these: U-87 MG.
The subject of experiment [9] is Escherichia coli. The experiment is described as follows: Antibacterial activity against Escherichia coli assessed as zone of inhibition. It is filed as functional.
In experiment [10] the test system is Escherichia coli. The experiment is described as follows: Antibacterial activity against Escherichia coli NCIM 2688 measured after 8 hrs. The class given is functional.
Experiment [11] relates to Pseudomonas aeruginosa. Description: Antibacterial activity against Pseudomonas aeruginosa NCIM […] measured after 8 hrs. It is filed as functional.
In experiment [12] the test system is Bacillus subtilis. The experiment is described as follows: Antibacterial activity against Bacillus subtilis NCIM 2079 measured after 12 hrs. It is filed as functional.
Experiment [13] deals with Staphylococcus aureus. The experiment is described as follows: Antibacterial activity against Staphylococcus aureus NCIM 2010 measured after 12 hrs. The class given is functional.
In another experiment the test system is Streptococcus pneumoniae. Description: Antibacterial activity against Streptococcus pneumoniae incubated for 24 to 48 hrs by agar diffusion well method. The class given is functional. The conditions noted are these: time 24-48 hrs. For orientation: A growth-free zone around the sample is the usual read-out of agar diffusion tests.
Experiment [14] deals with Bacillus subtilis. Description: Antibacterial activity against Bacillus subtilis incubated for 24 to 48 hrs by agar diffusion well method. It is filed as functional. The conditions noted are these: time 24-48 hrs.
The subject of experiment [15] is Pseudomonas aeruginosa. The experiment is described as follows: Antibacterial activity against Pseudomonas aeruginosa incubated for 24 to 48 hrs by agar diffusion well method. It is filed as functional. Particulars: time 24-48 hrs.
In experiment [16] the test system is Escherichia coli. Description: Antibacterial activity against Escherichia coli incubated for 24 to 48 hrs by agar diffusion well method. The class given is functional. Particulars: time 24-48 hrs.
In experiment [17] the test system is Pseudomonas aeruginosa. Description: Antibacterial activity against Pseudomonas aeruginosa RCMB 010043 incubated for 24 hrs by agar well diffusion method. The class given is functional.
Experiment [18] has as its system Escherichia coli. Description: Antibacterial activity against Escherichia coli RCMB 01100052 incubated for 24 hrs by agar well diffusion method. The class given is functional.
Experiment [19] concerns Staphylococcus aureus. Description: Antibacterial activity against Staphylococcus aureus assessed as zone of inhibition. The class given is functional.
The test system of experiment [20] is Staphylococcus aureus. The experiment is described as follows: Antibacterial activity against Staphylococcus aureus by disc diffusion method. The class given is functional.
The subject of experiment [21] is Bacillus subtilis. The experiment is described as follows: Antibacterial activity against Bacillus subtilis by disc diffusion method. It is filed as functional.
The test system of experiment [22] is Escherichia coli. Description: Antibacterial activity against Escherichia coli by disc diffusion method. It is filed as functional.
Experiment [23] has as its system Pseudomonas aeruginosa. Description: Antibacterial activity against Pseudomonas aeruginosa by disc diffusion method. It is filed as functional.
The subject of experiment [24] is MCF7. The experiment is described as follows: Antiproliferative activity against human MCF7. It is filed as functional, cell-based.
The next experiment has as its system WI-38. The experiment is described as follows: Antiproliferative activity against human WI-38. It is filed as functional, cell-based.
Experiment [25] has as its system K562. Description: Antiproliferative activity against human K562 cells. The class given is functional, cell-based.
In experiment [26] the test system is A549. Description: Antiproliferative activity against human A549 cells. It is filed as functional, cell-based.

In the case of `Cc1cc2c(cc1C)C(Cl)=C(C1C3CCCN3C3(C(=O)Nc4ccc(I)cc43)C1C(=O)c1ccccc1)CCC2` (configuration not stated), the IC50 in the experiment on A549 [1] came out at 15.9 µM; with SK-N-SH it was 5 µM; with HeLa it was 3.8 µM; in the experiment on HepG2 [2] it was 8.7 µM; in the experiment on MCF7 [3] it was 8.3 µM.
Regarding `Cc1cc2c(cc1C)C(Cl)=C(C1C3CCCN3C3(C(=O)Nc4ccc([N+](=O)[O-])cc43)C1C(=O)c1ccccc1)CCC2` (configuration not stated), the IC50 is 5.6 µM in the experiment with A549 [1]; 11 µM in the experiment on SK-N-SH; 3.8 µM in the experiment on HeLa; 20 µM in the experiment with HepG2 [2]; 7.3 µM in the experiment on MCF7 [3].
Regarding `Cc1ccccc1/C=C1\CNC[C@@]2(C1=O)[C@@H](c1ccccc1C)C1CCCN1[C@]21C(=O)Nc2ccccc21` (some centres not stated), the IC50 came to 3.6 µM in the experiment on CCRF-CEM and 35.8 µM with SK-OV-3.
As for `O=C1Nc2ccccc2[C@]12N1CSC[C@H]1[C@H](c1ccc(Br)cc1)[C@]21CCC/C(=C\c2ccc(Br)cc2)C1=O`, the IC50 was determined as 15.3 µM with MCF7 [3] and 14.7 µM with K562 [4].
For the molecule `O=C1OC(c2ccccc2)=N[C@@]12[C@H](c1ccc(C(F)(F)F)cc1)[C@H]1CCCN1[C@]21C(=O)Nc2ccccc21`, the values for the IC50 in “cells” and in the experiment on Huh-7 were 7.2 µM and 7.9 µM, respectively.
Regarding `O=C(c1c(O)c2ccccc2[nH]c1=O)[C@@H]1[C@@H](c2ccccc2Cl)C(c2ccccc2)N[C@@]12C(=O)Nc1ccccc12` (some centres not stated), inhibition in the experiment on HCT-116 [5] was half-maximal at 7.1 µM (IC50).
For the molecule `O=C(c1c[nH]c2ccccc12)[C@@H]1[C@@H](c2ccc(C(F)(F)F)cc2)[C@@H]2CSCN2[C@@]12C(=O)Nc1ccccc12`, the concentration for half-maximal inhibition (IC50) with HepG2 [6] turned out to be 5.5 µM; in the experiment on HCT-116 [7] it was 7 µM; in the experiment with PC-3, 6 µM.
For the molecule `CNC(=O)c1cc(Oc2ccc(NC(=O)Nc3ccc(Cl)c(C(F)(F)F)c3)cc2)ccn1` [SORAFENIB], the half-inhibitory concentration (IC50) in the experiment “cells” was more than 10 µM; with Huh-7 it was 7.1 µM.
In the case of `O=NN(CCCl)C(=O)NCCCl` [CARMUSTINE], in experiment [8], the IC50 turned out to be 3.9 µM.
With `CC1(C)S[C@@H]2[C@H](NC(=O)[C@H](N)c3ccccc3)C(=O)N2[C@H]1C(=O)O` [AMPICILLIN], the “diameter of the inhibition zone (DIZ)” value in the experiment on Escherichia coli [9] and in the experiment with Staphylococcus aureus [19] was 6 mm in each case. Besides, the MIC90 was found to be 1.46 µg/mL (≈ 4.18 µM) in the experiment with Escherichia coli [10], 4.36 µg/mL (≈ 12.5 µM) in the experiment with Pseudomonas aeruginosa [11], 10.3 µg/mL (≈ 29.5 µM) with Bacillus subtilis [12] and 1 µg/mL (≈ 2.86 µM) in the experiment on Staphylococcus aureus [13]. In addition, the minimum inhibitory concentration (MIC) was 0.015 µg/mL (≈ 0.0429 µM) in the experiment with Streptococcus pneumoniae; 0.007 µg/mL (≈ 0.02 µM) with Bacillus subtilis [14]; 250 µg/mL (≈ 715 µM) in the experiment on Staphylococcus aureus [20]; 250 µg/mL (≈ 715 µM) against Bacillus subtilis [21]; 100 µg/mL (≈ 286 µM) in the experiment on Escherichia coli [22]; 100 µg/mL (≈ 286 µM) with Pseudomonas aeruginosa [23]. Besides, the MIC entry with Pseudomonas aeruginosa [15], in the experiment on Escherichia coli [16], in the experiment on Pseudomonas aeruginosa [17] and in the experiment with Escherichia coli [18] was “inactive” in each case.
With `CN1C(=O)C2(SC[C@@H](C(=O)O)[C@@H]2C(=O)c2ccc(Cl)c(Cl)c2)c2ccccc21` (some centres not stated), the IC50 with MCF7 [24] is 36.3 µM; with WI-38, 55.1 µM.
With `Cc1noc([C@@H]2[C@H]3CCCN3[C@]3(C(=O)N(C)c4ccc(F)cc43)[C@@]23C(=O)N(C)c2ccccc23)c1[N+](=O)[O-]`, the half-inhibitory concentration (IC50) in the experiment on PC-3 turned out to be 51.6 µM; with K562 [25], 25 µM; in the experiment on A549 [26] it was 39.7 µM.
Regarding `Cc1noc([C@H]2[C@H](c3ccc(Cl)cc3Cl)CN(C)[C@]23C(=O)Nc2ccc(Cl)cc23)c1[N+](=O)[O-]`, the half-inhibitory concentration (IC50) with PC-3 amounted to 13.1 µM; in the experiment with K562 [25] it was 10.7 µM; in the experiment on A549 [26] it was 21.5 µM.

The term IC50 denotes the midpoint of a concentration-inhibition curve. A high value points to weaker potency. Broadly, the MIC90 is the lowest concentration that inhibits either 90% of growth or 90% of the strains tested, depending on the study. In general, MIC refers to the lowest concentration found to suppress growth.
